This is an account of results in publication PMC8745710, “Biological Evaluation and Molecular Docking Studies of Novel 1,3,4-Oxadiazole Derivatives of 4,6-Dimethyl-2-sulfanylpyridine-3-carboxamide” (International Journal of Molecular Sciences, 2022).

Read-outs that look alike come from different tables or passages of the source.

Data set [1] concerns VERO (kidney epithelial cells). The experiment in a line: MTT assay, VERO. It counts as cell-based. To be noted: Chlorocebus sabaeus, Vero, 48 h incubation, read-out: IC50 [µM] ± SD VERO. The text has this: (§1) The MTT (3-[4,5-dimethylthiazol-2-yl]-2,5-diphenyl tetrazolium bromide) assay was used to determine the cytotoxicity of tested compounds towards different cell lines: normal human dermal fibroblasts (NHDF), kidney epithelial cells (VERO), fibroblasts from Chinese hamster lung (V79) and four human cancer cells: A549 (pulmonary basal cell alveolar adenocarcinoma), MCF-7 (breast adenocarcinoma), LoVo (colon adenocarcinoma), and its drug resistant subline LoVo/Dx. The cell lines used in this study express COX-1 and COX-2. The LoVo line expressed COX-1, the LoVo/Dx subline express both COX-1 and COX-2 [61].
(§2) Each cell line was grown in the culture media recommended by supplier. Before the test they were detached with trypsin/EDTA solution, then to neutralize the effect of Trypsin/EDTA solution, FBS containing medium was used. After centrifugation the cells were stained with 0.4% solution of trypan blue, counted and inspected for viability using microscope. In the end, cells were inserted into 96-well culture plates and incubated in CO2 incubator (37 °C, 24 h). The number of cells was 2 × 10^3 cells per well. The tested compounds with different concentrations (5, 10, 20, 50, 100 µM) were dissolved in DMSO and then added to the cells (the final DMSO concentration was 0.1%). The cultures were incubated for another 48 h. After that time the cells were collected to be used in tests.
(§3) MTT assay was used to find out how tested compounds influence the metabolic activity of investigated cell lines. The cells were incubated with tested compounds. After removing of supernatant, 1 mg/mL of MTT solution in MEM was added to the plate (to each well) and then the plates were incubated at 37 °C for 2 h. The medium was removed again, and formazan crystals were dissolved in isopropanol. A Varioscan LUX microplate reader (Thermo Fisher Scientific, Waltham, MA, USA) was used to measure absorbance at 570 nm.

The test system of data set [2] is V79 (fibroblasts from Chinese hamster lung). The experiment in a line: MTT assay, V79. Format: cell-based. The following applies: Cricetulus griseus, Fibroblast, 48 h incubation, read-out: IC50 [µM] ± SD V79.
Source text: as §1, §2, §3

Data set [3] deals with A549 (pulmonary basal cell alveolar adenocarcinoma). The experiment in a line: MTT assay, A549. Format: cell-based. To be noted: Homo sapiens, 48 h incubation, read-out: IC50 [µM] ± SD A549.
Source text: as §1, §2, §3

Data set [4] concerns LoVo (colon adenocarcinoma). The data set is described as follows: MTT assay, LoVo. Format: cell-based. The following applies: Homo sapiens, 48 h incubation, read-out: IC50 [µM] ± SD LoVo.
Source text: as §1, §2, §3

Data set [5] concerns LoVo/Dx (drug resistant subline of LoVo). The data set is described as follows: MTT assay, LoVo/Dx. Format: cell-based. To be noted: Homo sapiens, 48 h incubation, read-out: IC50 [µM] ± SD LoVo/Dx.
Source text: as §1
as §2, with “In the end, cells were inserted into 96-well culture plates and incubated in CO2 incubator (37 °C, 24 h).” left out
MTT assay was used to find out how tested compounds influence the metabolic activity of investigated cell lines. The cells were incubated with tested compounds. […] The medium was removed again, and formazan crystals were dissolved in isopropanol.

Data set [6] relates to V79 cell line. The experiment in a line: Intracellular ROS level (DCFH-DA), V79 cells. Format: cell-based, Chinese hamster. The following applies: Cricetulus griseus, 4 h, V79, compound 100 μM. As for the experimental part: (§4) Two cell lines were chosen for investigations: V79 (Chinese hamster lung fibroblasts) and LoVo. V79 normal cells are widely used as the cell line tested in the studies of the oxidative stress. These cells are a living system model to explain the mechanism of ROS effects caused by varied compounds [73].
(§5) First, the tested compounds (in concentration of 100 μM) were added to the cell cultures and cells were incubated for 4 h. Then cells were washed and incubated with DCFH-DA (non-fluorescent probe) in dark at 37 °C for 2 h at CO2 [79]. Non-fluorescent, non-polar DCFH-DA (2′7′-dichlorodihydrofluorescein diacetate) at concentration of 25 μM was used as a marker of oxidative stress to determine the intracellular ROS levels. […] In this time, DCFH-DA which penetrated into the cells, was hydrolyzed by esterases to polar, non-fluorescent DCFH (2′7′-dichlorodihydrofluorescein) and then oxidized in the presence of ROS (reactive oxygen species) to fluorescent DCF (2′7′-dichlorofluorescein). DCF was measured using Varioscan LUX microplate reader (Thermo Fisher Scientific, Waltham, MA, USA) at λex = 485 nm and λem = 535 nm. Then results were presented as E/E0 where E is test sample value and E0—control value.
[…] E is the culture with the tested compound and E0 is the negative control without the compound. The routine statistical methods: two-way analysis of variance ANOVA as well as Tukey’s post-hoc test were used. It allowed us to determine the statistical significance of results, where p < 0.05 was set as significant. The statistical indicators were estimated using Statistica 13.3 software.

In data set [7] the test system is LoVo cell line. The data set is described as follows: Intracellular ROS level (DCFH-DA), LoVo cells. It counts as cell-based. To be noted: Homo sapiens, 4 h, compound 100 μM. As for the experimental part: as §4
as §5, with “nm.” for “nm. Then results were presented as E/E0 where E is test sample value and E0—control value.”
E is the culture with the tested compound and E0 is the negative control without the compound. The routine statistical methods: two-way analysis of variance ANOVA as well as Tukey’s post-hoc test were used. It allowed us to determine the statistical significance of results, where p < 0.05 was set as significant. The statistical indicators were estimated using Statistica 13.3 software.

Setting [8] is: with H2O2 (100 μM, 30 min), n = 5, read-out: ROS scavenging activity, Mean E/E0 ± SD, with H2O2.
[9] abbreviates: without H2O2, n = 5, read-out: ROS scavenging activity, Mean E/E0 ± SD, without H2O2.

Molecule `Cc1cc(C)c(C(=O)NCc2nn(CC(=O)NN=Cc3ccc(C(F)(F)F)cc3)c(=S)o2)c(S)n1` [Compound 11, 4,6-Dimethyl-N-{[4-(2-(2-(4-trifluoromethylbenzylidene)hydrazinyl)-2-oxoethyl)-5-sulfanylidene-4,5-dihydro-1,3,4-oxadiazole-2-yl]methyl}-2-sulfanylpyridine-3-carboxamide] registered a melting point of 253 to 255 °C. For the same molecule, the IC50 in data set [1] came to 104 ± 4.98 µM. For the same molecule, the IC50 in data set [2] turned out to be 55.2 ± 2.75 µM. Moreover, the IC50 in data set [3] worked out at 3.72 ± 0.24 µM. Moreover, in data set [4], the IC50 came out at 3.12 ± 0.31 µM. For the same molecule, the IC50 in data set [5] turned out to be 17.5 ± 8.73 µM. For the same molecule, the activity at 100 µM in data set [6] (setting [8]) was 112 ± 20%. Further, the activity at 100 µM in data set [6] (setting [9]) was determined as 67 ± 24%. The activity at 100 µM in data set [7] (setting [8]) turned out to be 84 ± 17%. The activity at 100 µM in data set [7] (setting [9]) turned out to be 124 ± 65%.
`Cc1cc(C)c(C(=O)NCc2nn(CC(=O)NN=Cc3cccc(Cl)c3)c(=S)o2)c(S)n1` [Compound 12, 4,6-Dimethyl-N-{[4-(2-(2-(3-chlorobenzylidene)hydrazinyl)-2-oxoethyl)-5-sulfanylidene-4,5-dihydro-1,3,4-oxadiazole-2-yl]methyl}-2-sulfanylpyridine-3-carboxamide] yielded a melting point of 273 to 275 °C. The IC50 in data set [1] was found to be 79.2 ± 14.4 µM. Further, the IC50 in data set [2] was 52.8 ± 7.2 µM. Moreover, in data set [3], the IC50 is 3.88 ± 0.5 µM. Besides, the IC50 in data set [4] amounted to 3.07 ± 0.21 µM. Further, the IC50 in data set [5] is 22.6 ± 8.19 µM. The activity at 100 µM in data set [6] (setting [8]) worked out at 62 ± 25%. Moreover, in data set [6] (setting [9]), the activity at 100 µM is 68 ± 27%. Besides, in data set [7] (setting [8]), the activity at 100 µM came out at 79 ± 16%. For the same molecule, in data set [7] (setting [9]), the activity at 100 µM was 91 ± 43%.
Regarding `Cc1cc(C)c(C(=O)NCc2nn(CC(=O)NN=Cc3ccccc3Br)c(=S)o2)c(S)n1` [Compound 13, 4,6-Dimethyl-N-{[4-(2-(2-(2-bromobenzylidene)hydrazinyl)-2-oxoethyl)-5-sulfanylidene-4,5-dihydro-1,3,4-oxadiazole-2-yl]methyl}-2-sulfanylpyridine-3-carboxamide], the melting point fell in the range of 285 to 288 °C. Moreover, in data set [1], the IC50 was 55.7 ± 1.84 µM. Also, the IC50 in data set [2] was 65.4 ± 4.04 µM. Besides, in data set [3], the IC50 stood at 3.16 ± 0.21 µM. Also, the IC50 in data set [4] turned out to be 2.89 ± 0.08 µM. In addition, the IC50 in data set [5] stood at 9.4 ± 5.97 µM. For the same molecule, the activity at 100 µM in data set [6] (setting [8]) is 50 ± 15%. For the same molecule, the activity at 100 µM in data set [6] (setting [9]) came out at 59 ± 8%. In data set [7] (setting [8]), the activity at 100 µM was determined as 69 ± 10%. Further, in data set [7] (setting [9]), the activity at 100 µM was determined as 70 ± 30%.
